Mutagenic call and call data for 15 compounds are collected here from PubChem BioAssay AID1259408 (Genetic Toxicology Data Bank (GENE-TOX), 2018).

Active and inactive are the calls of the source. The rule behind the calls is not given here.

This series deals with GENE-TOX genotoxicity assays, various organisms and cells. Kind of series: GENE-TOX mutagenicity studies. The settings on record: for call: Assay Type: In vivo carcinogenicity studies. The text has this: GENE-TOX provides genetic toxicology (mutagenicity) test data from expert peer review of open scientific literature for more than 3,000 chemicals from the United States Environmental Protection Agency (EPA). GENE-TOX was established to select assay systems for evaluation, review data in the scientific literature, and recommend proper testing protocols and evaluation procedures for these systems.
GENE-TOX covers the years 1991 - 1998. It is no longer updated.
This is an archive assay for GENE-TOX mutagenicity studies.

[1] abbreviates: Species/Cell Type: Drosophila melanogaster, Assay Type: Sex-linked recessive lethal gene mutation, Assay Code: SRLT, Evaluation Type: Evaluation A (Pre-1980).
Setting [2] is: Species/Cell Type: Escherichia coli polA (W3119 vs P3478), Assay Type: Rec-assay, DNA effects (bacterial DNA repair), Assay Code: RE1+, Evaluation Type: Evaluation A (Pre-1980).
[3] abbreviates: Species/Cell Type: Human lymphocytes, Assay Type: Sister-chromatid exchange (SCE) in vitro, Assay Code: SCL+D, Dose Response: With dose response, Evaluation Type: Evaluation B (Post-1980).
Where [4] appears, read: Species/Cell Type: Human, Assay Type: Sister-chromatid exchange (SCE) in vitro, Assay Code: SC1+D, Dose Response: With dose response, Evaluation Type: Evaluation B (Post-1980).
[5] abbreviates: Species/Cell Type: Mammalian polychromatic erythrocytes, Assay Type: Micronucleus test, chromosome aberrations, Assay Code: MNT+, Evaluation Type: Evaluation A (Pre-1980).
The mark [6] stands for this setting: Species/Cell Type: Nonhuman, Assay Code: CCG+L, Evaluation Type: Evaluation A (Pre-1980).
Where [7] appears, read: Species/Cell Type: Nonhuman, Assay Type: Sister-chromatid exchange (SCE) in vitro, Assay Code: SC2+D, Dose Response: With dose response, Evaluation Type: Evaluation B (Post-1980).
The mark [8] stands for this setting: Species/Cell Type: Neurospora crassa, Assay Type: Reverse gene mutation, Assay Code: NER+, Evaluation Type: Evaluation A (Pre-1980).
[9] abbreviates: Species/Cell Type: Saccharomyces cerevisiae, Assay Type: Mitotic recombination or gene conversion, Assay Code: YEH+, Evaluation Type: Evaluation A (Pre-1980).
[10] abbreviates: Species/Cell Type: Mammalian polychromatic erythrocytes, Assay Type: Micronucleus test, chromosome aberrations, Assay Code: MNT+, Evaluation Type: Evaluation B (Post-1980).
[11] abbreviates: Species/Cell Type: Mouse, Sex: Male, Assay Type: Sperm morphology, Assay Code: SPI-, Evaluation Type: Evaluation A (Pre-1980).
Where [12] appears, read: Species/Cell Type: Drosophila melanogaster, Assay Type: Sex-linked recessive lethal gene mutation, Assay Code: SRL+, Evaluation Type: Evaluation A (Pre-1980).
The mark [13] stands for this setting: Species/Cell Type: Salmonella typhimurium (one or more of the five standard strains: TA98, TA100, TA1535, TA1537, and TA1538), Assay Type: Histidine reverse gene mutation, Ames assay, Assay Code: SAL+, Evaluation Type: Evaluation A (Pre-1980).

Turning to `CCOC(=O)NO`, the mutagenic call runs as follows: under setting [1], “no conclusion”; under setting [2], “active; positive”; (Species/Cell Type: Human lymphocytes or leukocytes, Assay Type: Chromosome aberrations in vitro, Assay Code: CY7+, Evaluation Type: Evaluation A (Pre-1980)) “active; positive”; under setting [3], “active; positive”; under setting [4], “active; positive”; under setting [5], “active; positive”. The mutagenic call (Species/Cell Type: Mouse embryo (AKR/ME) cells, Assay Type: Cell transformation, Assay Code: CTK+, Evaluation Type: Evaluation A (Pre-1980)) is “active; positive”; the mutagenic call under setting [7] is “active; positive”; the mutagenic call (Species/Cell Type: Nonhuman, Assay Type: Sister-chromatid exchange (SCE) in vivo, Assay Code: SC3+D, Dose Response: With dose response, Evaluation Type: Evaluation B (Post-1980)) was “active; positive”. For the same compound, the call under setting [6] is “active; positive”.
Consider `CON`, for which the mutagenic call under setting [1] is reported as “no conclusion”; the mutagenic call (Species/Cell Type: Drosophila melanogaster, Sex: Male, Assay Type: Heritable translocation test, chromosome aberrations, Assay Code: DHTT, Evaluation Type: Evaluation A (Pre-1980)) is “no conclusion”; the mutagenic call under setting [8] was “active; positive”; the mutagenic call under setting [9] was “active; positive”.
As for `Cc1ccc(S(=O)(=O)NC(=O)N[C@H]2[C@H]3CC[C@@](C)([C@H]2O)C3(C)C)cc1`, the mutagenic call (Species/Cell Type: Nonhuman, Assay Type: Sister-chromatid exchange (SCE) in vivo, Assay Code: SC3T, Evaluation Type: Evaluation B (Post-1980)) is listed as “no conclusion”.
Take `CCC1(c2ccccc2)C(=O)NC(=O)NC1=O`: the mutagenic call was “active; positive” (Species/Cell Type: Human lymphocytes, Assay Type: Sister-chromatid exchange (SCE) in vivo, Assay Code: SCY+, Evaluation Type: Evaluation B (Post-1980)); “active; positive” under setting [10]; “no conclusion” (Species/Cell Type: Mammalian polychromatic erythrocytes, Assay Type: Micronucleus test, chromosome aberrations, Assay Code: MNTT, Evaluation Type: Evaluation A (Pre-1980)); “inactive; negative” under setting [11]; “inactive; negative” (Species/Cell Type: Syrian hamster embryo (SHE) cells, Assay Type: Cell transformation, clonal assay, Assay Code: CTC-, Evaluation Type: Evaluation A (Pre-1980)).
As to `CCCCS(=O)(=O)OC`, for the setting “Species/Cell Type: Glycine max (soybean), Assay Type: Gene mutation, Assay Code: GLM+, Evaluation Type: Evaluation A (Pre-1980)”, the mutagenic call is “active; positive”.
As to `COc1cc2c(c3oc(=O)c4c(c13)CCC4=O)[C@@H]1C=CO[C@@H]1O2`, the mutagenic call was “active; positive” (Species/Cell Type: Bacillus subtilis (H17 vs M45), Assay Type: Rec-assay, spot test, DNA effects (bacterial DNA repair), Assay Code: REW+, Evaluation Type: Evaluation A (Pre-1980)); “active; positive” (Species/Cell Type: Chinese hamster lung (V79) cells, Assay Type: Forward gene mutation at the HPRT or ouabain locus, Assay Code: V79+, Evaluation Type: Evaluation A (Pre-1980)); “active; positive” under setting [12]; “active; positive” under setting [2]; “active; positive” (Species/Cell Type: Human diploid fibroblasts, Assay Type: Unscheduled DNA synthesis (UDS) in vitro, DNA effects, Assay Code: UDH+D*, Activation: With metabolic activation, Dose Response: With dose response, Evaluation Type: Evaluation A (Pre-1980)); “active; positive” (Species/Cell Type: Human lymphocytes, Assay Type: Sister-chromatid exchange (SCE) in vitro, Assay Code: SCL+D, Dose Response: With dose response, Evaluation Type: Evaluation A (Pre-1980)). In addition, the mutagenic call was “active; positive” under setting [3]; “active; positive” (Species/Cell Type: Human, Assay Type: Sister-chromatid exchange (SCE) in vitro, Assay Code: SC1+D, Dose Response: With dose response, Evaluation Type: Evaluation A (Pre-1980)); “active; positive” under setting [4]; “no conclusion” (Species/Cell Type: Mammalian germ cells, Sex: Male, Assay Type: Chromosome aberrations in vivo, Assay Code: CY9T, Evaluation Type: Evaluation A (Pre-1980)); “active; positive” under setting [5]; “inactive; negative” under setting [11]. The mutagenic call runs as follows: (Species/Cell Type: Neurospora crassa, Assay Type: Forward gene mutation, Assay Code: NEF+, Evaluation Type: Evaluation A (Pre-1980)) “active; positive”; (Species/Cell Type: Nonhuman, Assay Type: Chromosome aberrations in vitro, Assay Code: CY&+, Evaluation Type: Evaluation A (Pre-1980)) “active; positive”; (Species/Cell Type: Nonhuman, Assay Type: Sister-chromatid exchange (SCE) in vitro, Assay Code: SC2+D, Dose Response: With dose response, Evaluation Type: Evaluation A (Pre-1980)) “active; positive”; under setting [7], “active; positive”; (Species/Cell Type: Nonhuman, Assay Type: Sister-chromatid exchange (SCE) in vivo, Assay Code: SC3+, Evaluation Type: Evaluation A (Pre-1980)) “active; positive”; (Species/Cell Type: Nonhuman, Assay Type: Sister-chromatid exchange (SCE) in vivo, Assay Code: SC3+, Evaluation Type: Evaluation B (Post-1980)) “active; positive”. In addition, the mutagenic call is “active; positive” (Species/Cell Type: Rat primary hepatocytes, Assay Type: Unscheduled DNA synthesis (UDS) in vitro, DNA effects, Assay Code: UDP+, Evaluation Type: Evaluation A (Pre-1980)); “inactive; negative” (Species/Cell Type: Rat, Sex: Male, Assay Type: Sperm morphology, Assay Code: SPA-, Evaluation Type: Evaluation A (Pre-1980)); “active; positive” (Species/Cell Type: Saccharomyces cerevisiae, Assay Type: Mitotic recombination or gene conversion, Assay Code: YEC+, Evaluation Type: Evaluation A (Pre-1980)); “active; positive” under setting [9]; “active; positive” under setting [13]; “active; positive” (Species/Cell Type: Salmonella typhimurium, Assay Type: Forward and reverse gene mutation, body fluid assay, Assay Code: BFU+, Evaluation Type: Evaluation A (Pre-1980)). The mutagenic call was “active; positive” (Species/Cell Type: Salmonella typhimurium, Assay Type: Forward and reverse gene mutation, host-mediated assay, Assay Code: HMA+, Evaluation Type: Evaluation A (Pre-1980)); “active; positive” (Species/Cell Type: Syrian hamster embryo (SA7/SHE) cells, Assay Type: Cell transformation, viral enhanced, Assay Code: CT7+, Evaluation Type: Evaluation A (Pre-1980)); “active; positive” (Species/Cell Type: Syrian hamster embryo (SHE) cells, Assay Type: Cell transformation, clonal assay, Assay Code: CTC+D, Dose Response: With dose response, Evaluation Type: Evaluation A (Pre-1980)); “active; positive” (Species/Cell Type: Syrian hamster embryo (SHE) cells, Assay Type: Cell transformation, focus assay, Assay Code: CTF+, Evaluation Type: Evaluation A (Pre-1980)). Besides, under “Species/Cell Type: Nonhuman, Assay Code: CCG+, Evaluation Type: Evaluation A (Pre-1980)”, the call was “active; positive”.
Turning to `NC(N)=NS(=O)(=O)c1ccc(N)cc1`, the mutagenic call (Species/Cell Type: Salmonella typhimurium (one or more of the five standard strains: TA98, TA100, TA1535, TA1537, and TA1538), Assay Type: Histidine reverse gene mutation, Ames assay, Assay Code: SAL-, Evaluation Type: Evaluation A (Pre-1980)) was “inactive; negative”.
Consider `C=[N+]=[N-]`, for which the mutagenic call under setting [8] is “active; positive” and the mutagenic call (Species/Cell Type: Saccharomyces cerevisiae, Assay Type: Reverse gene mutation, Assay Code: YER+, Evaluation Type: Evaluation A (Pre-1980)) was “active; positive”. The call under setting [6] is “active; positive”.
On to `Cn1c([N+](=O)[O-])cnc1-c1nc2ccccc2n1CCCN1CCOCC1`, for which the mutagenic call under setting [1] is “no conclusion” and the mutagenic call (Species/Cell Type: Saccharomyces cerevisiae, Assay Type: Mitotic recombination or gene conversion, Assay Code: YEC-, Evaluation Type: Evaluation A (Pre-1980)) was “inactive; negative”.
Take `NC(Cc1ccc(Oc2ccc(N(CCCl)CCCl)cc2)cc1)C(=O)O` (configuration not stated): the mutagenic call under setting [12] is “active; positive”.
Take `CCSc1nc2c(c(=O)n(C)c(=O)n2C)n1C`: the mutagenic call (Species/Cell Type: Allium cepa, Assay Type: Chromosome aberrations, Assay Code: ALC+D, Dose Response: With dose response, Evaluation Type: Evaluation A (Pre-1980)) is “active; positive”.
Take `OCn1cnc2ccccc21`: the mutagenic call (Species/Cell Type: Arabidopsis species, Assay Type: Gene mutation, Assay Code: ARM-, Evaluation Type: Evaluation A (Pre-1980)) was “inactive; negative”.
Turning to `Clc1cccc(Cl)c1`, the mutagenic call under setting [10] is “active; positive”.
In the case of `COc1cc2c(c3oc(=O)c4c(c13)C(O)CC4O)[C@@H]1C=CO[C@@H]1O2` (some centres not stated), for the setting “Species/Cell Type: Salmonella typhimurium (one or more of the five standard strains: TA98, TA100, TA1535, TA1537, and TA1538), Assay Type: Histidine reverse gene mutation, Ames assay, Assay Code: SAL+*, Activation: With metabolic activation, Evaluation Type: Evaluation A (Pre-1980)”, the mutagenic call was “active; positive”.
Turning to `OC(CCl)OC(O)CCl` (configuration not stated), under setting [13], the mutagenic call is “active; positive”.
